# According to patent EP1921068A1, “Indazole and indole derivatives as anti-inflammatory agents” (Bayer Schering Pharma Aktiengesellschaft, priority 2006, dated 2008):
# Tests used:
# [1] = system: secretion of cytokine IL-8 into the human monocyte cell line THP-1; assay: Inhibition of LPS-triggered IL-8 secretion in THP-1 cells (ELISA of supernatant); assay type: cell-based
# Protocol: The concentration of the cytokines was determined in the supernatant by means of commercially available ELISA kits.
# [2] = biological target: T1, glucocorticoid receptor (GR) (Homo sapiens, UniProt P04150); assay: Binding to recombinantly produced glucocorticoid receptor (cytosol preparations of baculovirus-infected Sf9 cells, [3H]-dexamethasone as reference substance); details: recombinant GR
# T1 construct: made in house; host or cells: Sf9 insect cells infected with recombinant baculovirus; cytosol preparation
# T1 sequence (P04150 1-777): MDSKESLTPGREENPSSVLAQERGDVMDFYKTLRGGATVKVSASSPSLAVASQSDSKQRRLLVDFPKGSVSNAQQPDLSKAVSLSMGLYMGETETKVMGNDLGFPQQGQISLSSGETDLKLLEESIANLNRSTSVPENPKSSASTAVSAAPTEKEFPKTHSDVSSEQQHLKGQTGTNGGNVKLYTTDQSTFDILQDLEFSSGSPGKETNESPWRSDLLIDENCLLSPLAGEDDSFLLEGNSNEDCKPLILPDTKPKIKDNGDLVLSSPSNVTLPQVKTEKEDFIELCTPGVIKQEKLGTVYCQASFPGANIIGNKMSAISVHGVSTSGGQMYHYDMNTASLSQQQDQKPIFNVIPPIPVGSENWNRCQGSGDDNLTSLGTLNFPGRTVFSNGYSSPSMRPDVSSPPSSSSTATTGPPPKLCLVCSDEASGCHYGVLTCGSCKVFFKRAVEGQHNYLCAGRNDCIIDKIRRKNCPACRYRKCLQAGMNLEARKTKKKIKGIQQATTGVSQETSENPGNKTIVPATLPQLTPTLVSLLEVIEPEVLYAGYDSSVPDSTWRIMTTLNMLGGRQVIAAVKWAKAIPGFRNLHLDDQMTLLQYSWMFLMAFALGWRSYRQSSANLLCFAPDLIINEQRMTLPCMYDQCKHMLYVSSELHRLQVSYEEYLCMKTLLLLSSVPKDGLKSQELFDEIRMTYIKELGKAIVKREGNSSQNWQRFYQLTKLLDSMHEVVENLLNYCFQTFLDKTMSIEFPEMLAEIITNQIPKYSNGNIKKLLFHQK
# Description: The binding of the substances to the glucocorticoid receptor (GR) and other steroid hormone receptors (mineral corticoid receptor (MR), progesterone receptor (PR) and androgen receptor (AR)) is examined with the aid of recombinantly produced receptors. Cytosol preparations of Sf9 cells, which had been infected with recombinant baculoviruses, which code for the GR, are used for the binding studies. In comparison to reference substance [^3H]-dexamethasone, the substances show a high to very high affinity to GR. IC50(GR) = 11,5 nM was thus measured for the compound from Example A16.
smiles,measurement,setting,value
CC(C)(CC(O)(CNc1cccc2c1cnn2-c1ccc(F)nc1)C(F)(F)F)c1cccc2c1OCO2 (stereo not drawn) [Example A16],Emax,"[1]; efficacy relative to dexamethasone, read-out: eff. relative to dexamethasone",94%
same,IC50,[1]; read-out: IC50(IL8),0.3 nM
same,IC50,[2],11.5 nM
